Experimental data from PMC12562681, “Targeting a Tau Kinase Cdk5, Cyclin-Dependent Kinase: A Blood-Based Diagnostic Marker and Therapeutic Earmark for Alzheimer’s Disease” (Biomolecules, 2025).
Read-outs that look alike come from different tables or passages of the source. Peptide text beside a SMILES is read from it.

How the values were obtained:
Cdk5 [1] = test: Cdk5 expression by Western blot in Aβ25–35-treated SH-SY5Y cells; type: cell-based; details: aggregated Aβ25–35, SH-SY5Y
Description: (§1) The concentration of total protein in cell lysate was measured using the bicinchoninic acid (BCA) assay. Samples were prepared using the 6× protein loading dye and incubated at 95 °C for 15 min. Equal concentrations of cell lysate (50 µg/lane) were fractionated by 10% SDS-PAGE and transferred to PVDF membrane. The membrane was blocked with 5% NFM for 2 h and then probed with their respective primary antibodies: Cdk5 (1:400) and Mcl1 (1:1000), mouse IgG anti-β-amyloid (1:200) (Sc28365), mouse IgG anti-Tau (Tau-46) (1:200) (Santa Cruz Biotechnology Inc., Dallas, TX, USA, Sc32274), rabbit IgG anti-phospho-Tau (Thr181) (1:350) (Cell Signaling Technology, Inc., Danvers, MA, USA, DAF4G), and rabbit antibody IgG anti-β-actin (1:1000) (Cell Signaling Technology, Inc., Danvers, MA, USA). The membranes were incubated with the secondary anti-rabbit and anti-mouse (cat. no. Sc2004, Sc2005) HRP-conjugated antibody (1:4000) at room temperature for 1 h.

Cdk5 mRNA = Cdk5 mRNA by RT-PCR in Aβ25–35-treated SH-SY5Y cells; type: cell-based; details: aggregated Aβ25–35 alone; δ-δ CT, GAPDH; triplicate
Source text: [36]; Mcl1 forward primer-[NT] and reverse primer-[…] forward primer-[NT] and reverse primer-[NT].

Aβ-amyloid = Aβ-amyloid expression by Western blot in Aβ25–35-treated SH-SY5Y cells; type: cell-based; details: aggregated Aβ25–35 alone
Description: as §1

Tau = Tau expression by Western blot in Aβ25–35-treated SH-SY5Y cells; type: cell-based; details: aggregated Aβ25–35 alone
Description: as §1

phospho-Tau (Thr181) = test: p-Tau expression by Western blot in Aβ25–35-treated SH-SY5Y cells; type: cell-based; details: aggregated Aβ25–35 alone
Description: as §1

Cdk5 [2] = target: T1, Cdk5 (Homo sapiens, UniProt Q00535); test: Binding study of peptide by SPR (Ni-NTA chip, immobilized recombinant Cdk5); details: recombinant Cdk5 on Ni-NTA sensor chip, peptide 0.4, 0.6 and 1 µM, BIA evaluation 3.0, read-out: dissociation constant (KD)
T1 construct: host or cells: E. coli BL21
T1 sequence (Q00535 whole entry): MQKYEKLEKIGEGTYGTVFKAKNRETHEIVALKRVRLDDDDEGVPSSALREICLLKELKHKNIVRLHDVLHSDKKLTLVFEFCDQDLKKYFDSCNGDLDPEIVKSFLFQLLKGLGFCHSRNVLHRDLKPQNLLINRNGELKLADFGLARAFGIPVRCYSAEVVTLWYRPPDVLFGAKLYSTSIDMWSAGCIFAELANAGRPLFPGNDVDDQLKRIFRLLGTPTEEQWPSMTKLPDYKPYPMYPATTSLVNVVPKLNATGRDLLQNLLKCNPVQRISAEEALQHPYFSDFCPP
Description: Different concentrations of purified recombinant human Cdk5 and Mcl1 proteins were passed over the respective flow cells, and corresponding response units (RU) were noted. The standard curve was prepared by plotting different concentrations of pure proteins versus the corresponding RU (Figure S1). Serum samples were diluted (1:79) with HBS-EP buffer and passed over the respective flow cell. The RU for each sample was noted, and the concentration of Cdk5 and Mcl1 in the serum sample was derived from their respective standard curves.
The recombinant Cdk5 protein was immobilized on the Ni-NTA sensor chip by passing NiCl2 solution and the protein. Different concentrations of peptide YCWS (0.4 µM, 0.6 µM, and 1 µM) were passed over it, and changes in RU were noted. The association constant (KA) and dissociation constant (KD) values were calculated using the BIA evaluation 3.0 software.

HEK-293 cells = test: Cell cytotoxicity assay in HEK-293 cells (MTT); type: cell-based; details: 24 h, 48 h and 72 h, up to 50 µM, triplicate
Source text: (§2) SH-SY5Y and HEK 293 cells were purchased from NCCS, Pune, India, and were maintained in Ham’s F12 (cat. no. 21700075) and Dulbecco’s Modified Eagle Medium (DMEM, cat. no. 12800017) nutrient media (Gibco, Waltham, MA, USA), respectively, supplemented with 10% (v/v) Fetal Bovine Serum (FBS, cat. no. 10270106) and 1% antibiotic–antimycotic solution (cat. no. CC4003010L, CELL clone, New Delhi, India). The SH-SY5Y cells used in the experiment were of passage number 42–46. Cells were maintained as a monolayer culture at 37 °C with 5% CO2 and 95% relative humidity. Potential contamination in all cells was assessed through STR profiling (DNA Forensic Laboratory Private Limited, New Delhi, India).
The peptide’s effect was initially assessed using the normal HEK 293 cell line, and the cell viability was determined by the 3-(4,5-dimethylthiazol-2-yl)-2,5-diphenyltetrazolium bromide (MTT) (cat. no. T0793) reduction assay. Cells were seeded in 96-well plates at a density of 5 × 10^3 cells per 100 μL per well. Cells were cultured for 24 h and then treated with different concentrations of peptide, i.e., 10 µM, 20 µM, and 50 µM, for different time intervals (24 h, 48 h, and 72 h). At the end of treatment, 10 μL MTT (5 mg/mL) was added in each well and incubated for 4 h at 37 °C. […] The absorbance value at 572 nm was measured using a microplate reader. […]

SH-SY5Y cells = type: cell-based; details: triplicate
Source text: as §2
Aggregated Aβ25–35 was employed to induce neurotoxicity in SH-SY5Y cells due to its ability to replicate the physiological and biological characteristics of Aβ-amyloid, known to mediate neurotoxic effects and contribute to neuronal cell damage. The effect of peptide on neurotoxicity caused by aggregated Aβ25–35 was assessed via MTT assay. Cells were seeded in 96-well plates at a density of 1 × 10^4 cells per 100 μL per well. Cells were cultured for 24 h and then treated with 20 µM retinoic acid for differentiation. The culture medium was routinely replaced every alternate day for a period of seven days. A stock solution of 20 mM Aβ25–35 was prepared by dissolving 2.12 mg of synthesized Aβ25–35 in 100 µL of 1× PBS and allowed to aggregate at 37 °C for 7 days. Cells were treated with 20 µM aggregated Aβ25–35, along with different concentrations of the peptide YCWS (2 µM, 5 µM, 10 µM, 15 µM, and 20 µM) for 24 h, 48 h, and 72 h. After completion of the treatment duration, cell viability was determined using the MTT assay as described above.

SHSY-5Y cells = test: Cytotoxicity of peptide in SHSY-5Y cells; type: cell-based; details: discussion statement, concentration and time not given

Compound | Cdk5 protein expression (Cdk5 [1]) | Cdk5 mRNA expression, fold vs control group (Cdk5 mRNA) [fold] | Aβ-amyloid expression (Aβ-amyloid) | tau expression (Tau) | p-Tau expression (phospho-Tau (Thr181)) | Kd (Cdk5 [2]) [nM] | cytotoxicity, HEK-293 cells (HEK-293 cells) | cell viability, rescue (SH-SY5Y cells; YCWS 2 µM + 20 µM aggregated Aβ25–35, MTT, time of value not stated (24, 48, 72 h tested)) [%] | cell viability, rescue (SH-SY5Y cells; YCWS 5 µM + 20 µM aggregated Aβ25–35, MTT, time of value not stated (24, 48, 72 h tested)) [%] | cell viability, rescue (SH-SY5Y cells; YCWS 10 µM + 20 µM aggregated Aβ25–35, MTT, time of value not stated (24, 48, 72 h tested)) [%] | cell viability, rescue (SH-SY5Y cells; YCWS 15 µM + 20 µM aggregated Aβ25–35, MTT, time of value not stated (24, 48, 72 h tested)) [%] | cell viability, rescue (SH-SY5Y cells; YCWS 20 µM ("up to") + 20 µM aggregated Aβ25–35, MTT, p < 0.001 vs Aβ (Mann–Whitney), time of value not stated) [%] | cytotoxicity, SHSY-5Y cells (SHSY-5Y cells)
CC[C@H](C)[C@H](NC(=O)[C@H](C)NC(=O)CNC(=O)[C@H](CCCCN)NC(=O)[C@H](CC(N)=O)NC(=O)[C@H](CO)NC(=O)CN)C(=O)N[C@H](C(=O)NCC(=O)N[C@@H](CC(C)C)C(=O)N[C@@H](CCSC)C(=O)O)[C@@H](C)CC [Aβ25–35] (H-GSNKGAIIGLM-OH; N-terminus and C-terminus assumed) | increased the expression of Cdk5 | 1.85 | increased | increased | increased | – | – | – | – | – | – | – | –
N[C@@H](Cc1ccc(O)cc1)C(=O)N[C@@H](CS)C(=O)N[C@@H](Cc1c[nH]c2ccccc12)C(=O)N[C@@H](CO)C(=O)O [YCWS] (H-YCWS-OH) | – | – | – | – | – | 3.94 | nontoxic | 87.28 | 91.47 | 92.20 | 98.27 | 98.55 | non-toxic
